One molecule from patent US20230141887A1, “CRYSTAL FORM OF DIAZASPIROPYRAN COMPOUND” (MEDSHINE DISCOVERY INC., priority 2020, published 2023) can be followed below.

The target of one assay is T1, FLT3(D835V) (Homo sapiens, UniProt P36888, D835V).
T1 sequence (P36888 27-993 D835V): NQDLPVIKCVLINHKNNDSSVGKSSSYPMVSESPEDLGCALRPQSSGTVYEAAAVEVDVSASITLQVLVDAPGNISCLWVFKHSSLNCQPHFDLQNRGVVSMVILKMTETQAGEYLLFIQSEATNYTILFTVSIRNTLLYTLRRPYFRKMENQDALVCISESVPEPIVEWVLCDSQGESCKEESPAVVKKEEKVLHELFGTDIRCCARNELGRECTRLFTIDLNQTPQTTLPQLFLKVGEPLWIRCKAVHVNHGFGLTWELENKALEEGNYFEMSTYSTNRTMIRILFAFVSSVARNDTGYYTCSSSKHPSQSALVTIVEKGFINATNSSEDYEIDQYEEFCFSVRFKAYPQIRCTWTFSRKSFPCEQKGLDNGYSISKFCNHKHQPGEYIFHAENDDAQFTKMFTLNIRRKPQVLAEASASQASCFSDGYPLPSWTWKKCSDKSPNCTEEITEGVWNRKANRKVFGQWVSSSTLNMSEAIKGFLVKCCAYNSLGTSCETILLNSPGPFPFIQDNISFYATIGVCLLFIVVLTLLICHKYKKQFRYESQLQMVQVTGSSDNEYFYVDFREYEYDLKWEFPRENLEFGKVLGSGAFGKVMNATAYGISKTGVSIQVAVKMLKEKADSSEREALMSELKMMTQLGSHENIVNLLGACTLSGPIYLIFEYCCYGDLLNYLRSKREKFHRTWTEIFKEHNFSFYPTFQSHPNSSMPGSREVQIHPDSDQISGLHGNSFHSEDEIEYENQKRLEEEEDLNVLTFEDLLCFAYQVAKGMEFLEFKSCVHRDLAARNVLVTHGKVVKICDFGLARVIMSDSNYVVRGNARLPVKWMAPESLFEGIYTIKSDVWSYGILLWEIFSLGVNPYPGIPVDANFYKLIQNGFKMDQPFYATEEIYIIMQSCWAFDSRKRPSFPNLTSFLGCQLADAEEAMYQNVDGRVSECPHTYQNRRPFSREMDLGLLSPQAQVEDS
It is filed as binding. As to the method: (§1) The assay was carried out using KINOMEscan™ technology. The assay compounds were stored in 100% DMSO. The assay was carried out by means of 3-fold dilution and 11-point fitting. All compounds used for Kd determination were dispersed by ultrasound, then directly diluted and tested. All reactions were carried out in a 384-well polypropylene plate. Each portion has a final volume of 0.02 ml. The plate was incubated with shaking at room temperature for 1 hour, and then processed. The kinase concentration in the eluent was finally determined by qPCR method. Kd was obtained by fitting.

Another assay concerns the target T2, FLT3(ITD) (Homo sapiens, UniProt P36888).
T2 construct: fused on or other part: DNA tag for the qPCR read-out (the KINOMEscan format)
T2 sequence (P36888 1-993): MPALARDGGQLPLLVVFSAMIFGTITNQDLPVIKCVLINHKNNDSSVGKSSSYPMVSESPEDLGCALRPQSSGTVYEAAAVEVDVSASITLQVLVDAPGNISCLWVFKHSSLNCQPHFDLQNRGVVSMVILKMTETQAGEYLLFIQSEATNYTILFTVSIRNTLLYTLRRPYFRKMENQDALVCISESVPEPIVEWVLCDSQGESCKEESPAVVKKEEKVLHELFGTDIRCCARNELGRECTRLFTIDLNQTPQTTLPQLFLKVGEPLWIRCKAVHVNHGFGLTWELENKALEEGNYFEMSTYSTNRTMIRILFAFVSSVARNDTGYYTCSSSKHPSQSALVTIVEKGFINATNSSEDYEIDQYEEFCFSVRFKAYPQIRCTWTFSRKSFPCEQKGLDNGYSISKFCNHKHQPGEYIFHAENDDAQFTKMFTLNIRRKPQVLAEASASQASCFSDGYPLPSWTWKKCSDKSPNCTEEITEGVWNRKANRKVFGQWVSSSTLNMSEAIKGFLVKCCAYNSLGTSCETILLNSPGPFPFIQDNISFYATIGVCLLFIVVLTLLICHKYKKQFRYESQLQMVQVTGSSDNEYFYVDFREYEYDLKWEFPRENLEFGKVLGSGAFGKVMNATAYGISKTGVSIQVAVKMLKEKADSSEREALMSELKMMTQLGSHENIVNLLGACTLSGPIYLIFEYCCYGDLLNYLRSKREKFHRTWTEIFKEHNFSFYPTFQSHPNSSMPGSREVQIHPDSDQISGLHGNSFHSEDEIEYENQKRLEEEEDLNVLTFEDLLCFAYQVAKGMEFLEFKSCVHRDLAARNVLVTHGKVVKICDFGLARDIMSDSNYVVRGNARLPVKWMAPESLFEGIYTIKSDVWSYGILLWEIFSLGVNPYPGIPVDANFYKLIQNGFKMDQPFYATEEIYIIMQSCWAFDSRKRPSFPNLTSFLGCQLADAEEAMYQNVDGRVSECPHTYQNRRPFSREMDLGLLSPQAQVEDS
It is filed as binding. Here is the method:
as §1

`CCc1nc(C(N)=O)c(Nc2ccc(N3CCC4(CCN(C)CC4)CC3)c(C)c2)nc1NC1CCOCC1.O=C(O)C(F)(F)F`: the Kd on FLT3(D835V) stood at 0.23 nM; on FLT3(ITD) it was 3.6 nM.
